Laboratory results reported in ChEMBL document CHEMBL1157539, “Thousands of chemical starting points for antimalarial lead identification” (Nature, 2010).

Test system: Plasmodium falciparum
Experiment: GSK_TCMDC: Inhibition of Plasmodium falciparum 3D7 in whole erythrocytes, using parasite LDH activity as an index of growth.
Type: functional, organism-based
Conditions: Plasmodium falciparum, 3D7

Row | Compound | XC50 [nM]
1 | Cc1nc2ccccc2c(=O)n1/N=C/c1ccccc1[N+](=O)[O-] | 221
2 | Oc1cc(NCCCNC2CCc3c(Cl)cc(Cl)cc32)nc2ccccc12 (stereo not drawn) | 934
3 | CCN1CCC(N(Cc2ccc(-c3ccc(C(F)(F)F)cc3)cc2)C(=O)Cn2c(CCc3cccc(F)c3F)cc(=O)c3c2CCC3)CC1 | 972
4 | O=C(/C=C/c1ccc(Cl)c(Cl)c1)NCCCCCN1CCCN(C(=O)Nc2ccc(F)c(Cl)c2)CC1 | 799
5 | O=C(Nc1ccc(I)cc1)Nc1ccc(Cn2ncc(N3CCCNCC3)c(Cl)c2=O)cc1 | 1120
6 | Cc1cc(N[C@@H](CC(C)C)C(=O)NCc2cccs2)nc(NCCc2ccccc2)n1 | 1190
7 | CN(C(=O)c1ccc(Br)cc1)c1ccccc1[N+](=O)[O-] | 926
8 | C=CCn1c(Sc2ccc(C#N)c([N+](=O)[O-])c2)nnc1-c1cccc(Cl)c1 | 301
9 | CS(=O)(=O)N1CC2(CCN(CCC(NC(=S)Nc3ccccc3)c3ccc(Cl)c(Cl)c3)CC2)c2ccccc21 (stereo not drawn) | 826
10 | N=C(N)c1ccc2[nH]c(-c3cc4cc(C(=N)N)ccc4o3)cc2c1 | 179
11 | Cc1cc(N[C@@H](CC(C)C)C(=O)NCCc2ccccc2)nc(Nc2ccccc2)n1 | 816
12 | Cc1cc(O)nc(NC(=N)NOCc2ccccc2)n1 | 423
13 | CC(C)(C)C1=CC(=NNC(=O)c2ccncc2)C=C(C(C)(C)C)C1=O | 704
14 | CN1CCCN(c2ccnc3cc4c(cc23)N(C(=O)c2ccc(Cl)cc2)CC4)CC1 | 791
15 | COc1ccccc1CCN1CCC(CN(C)Cc2ccc(O)c(Cl)c2)CC1 | 335
16 | COc1ccc(-c2ccc(CNC3Cc4ccccc4C3)cc2)cc1S(=O)(=O)NCCN1CCCC1 | 798
17 | CC(C)(C)c1ccc2nccc(Nc3cccc(O)c3)c2c1 | 973
18 | CN1CCC[C@H]1COc1ccc(CN2CC[C@H](NC(=O)c3ccc(Cl)c(Cl)c3)C2)c2ccccc12 | 946
19 | Cc1noc(C)c1-c1cccc(CNCc2ccc(-c3cccc(-c4nc5ccccc5[nH]4)c3)cc2)c1 | 569
20 | COc1ccc(O)c(C(=O)c2cnc3c(c2)c(-c2ccc(F)cc2)c(C#N)c(=O)n3C)c1 | 792
21 | FC(F)(F)c1cnc(Sc2nnc(-c3ccco3)o2)c(Cl)c1 | 791
22 | CCC(CSC1CCCCC1)N(C)CCN(C)C(CC)CSC1CCCCC1 (stereo not drawn) | 314
23 | Cc1nc(-c2nc(N3CCC(O)CC3)ncc2-c2ccsc2)sc1C | 939
24 | O=C(NCCc1ccccc1)N(Cc1ccccc1-c1cccc(CNCc2ccc3c(c2)OCO3)c1)C1CCN(Cc2ccccc2)CC1 | 987
25 | CCOC(=O)c1ccc2[nH]c(-c3ccc(C(=O)NC4CCN(Cc5ccccc5)CC4)s3)nc2c1 | 745

Row | Compound | XC50 [nM]
26 | Cc1cc(-c2ccc(CNC3Cc4ccccc4C3)cc2)ccc1S(=O)(=O)NCCN1CCCC1 | 704
27 | Cc1cc(=NN=Cc2cccc(F)c2)c2cc(F)ccc2[nH]1 | 478
28 | O=C(NCCc1ccccc1F)c1cc(Br)cc(N2CCN(c3ccncc3)CC2)c1 | 756
29 | CN(C)c1ccc(CN2CCC(NC(=O)c3ccc(-c4cccc(C(F)(F)F)c4)s3)CC2)cc1 | 1150
30 | Clc1ccc(-n2cnc3c(Nc4ccc(Oc5ccccc5)cc4)ncnc32)cc1Cl | 747
31 | CCCCCCN1CCN(Cc2cccc(NC(=O)c3ccc(Cl)c(Cl)c3)c2)CC1 | 610
32 | COc1cc2c(cc1OC)CN(CCc1ccc(NC(=O)c3cc4cc(OC(F)(F)F)ccc4[nH]3)cc1)CC2 | 535
33 | CN1CCC(NCc2cccc(-c3ccc(S(=O)(=O)NCCc4ccccn4)cc3)c2)CC1 | 827
34 | Cc1cc(N(C)C2CCN(CC3CCCCC3)C2)nc(Nc2ccc(Cl)cc2)n1 (stereo not drawn) | 679
35 | CCOC(=O)c1cc2c(CCN3C(=O)c4ccccc4C3=O)cn(C)c2cc1-c1ccncc1 | 583
36 | CC(C)CNCc1cccc(-c2ccc(CN(C(=O)c3cccs3)C3CCN(Cc4ccccc4)CC3)cc2)c1 | 1010
37 | COc1cc(NC(=O)/C=C/c2cccc3cc[nH]c23)ccc1OCCN(C(C)C)C(C)C | 270
38 | N#Cc1ccc(-c2ccc(C(=O)NCCCCN3CCC(c4nc5ccccc5[nH]4)CC3)cc2)cc1 | 1010
39 | Cc1nc2nc(N)nc(N)c2c(C)c1Cc1ccc(C(F)(F)F)cc1 | 747
40 | Nc1nccc(-c2ccc3c(/C=C/c4ccccc4)cnc(N)c3c2)n1 | 621
41 | Cc1cc2c(cc1C(F)(F)F)N(C(=O)Nc1cc(C(=O)NCCN(C)C)cc(C(F)(F)F)c1)CC2 | 730
42 | CC1CN(c2ncc(-c3ccc(CNC4Cc5ccccc5C4)cc3)cn2)CC(C)N1 (stereo not drawn) | 1160
43 | COc1ccc(CNC2CCN(C)CC2)cc1-c1ccc(S(=O)(=O)NCCc2ccccn2)c(F)c1 | 819
44 | COc1ccc(S(=O)(=O)Nc2ccc(C(=O)NCc3ccc(C(F)(F)F)cc3)cc2)cc1N1CCN(CC2CC2)CC1 | 1120
45 | c1cc2[nH]c(CCc3nc4cc(C5=NC6CCCCC6N5)ccc4[nH]3)nc2cc1C1=NC2CCCCC2N1 (stereo not drawn) | 230
46 | COc1ccccc1/C=C/C(=O)NCCC1CCN(CCCCCNC(=O)/C=C/c2ccc(Cl)c(Cl)c2)CC1 | 807
47 | CC(=O)Nc1ccc(CN2CCC(NC(=O)c3ccc(-c4cccc(F)c4)s3)CC2)cc1 | 1430
48 | Cc1cccc2nc(-c3ccc(-c4cccc(CN5CCN(CCO)CC5)c4)cc3)[nH]c12 | 730
49 | COc1ccc2nccc([C@@H](O)CN3CCC(NCc4ccc5sc(=O)[nH]c5c4)CC3)c2c1 | 287
50 | O=C1CSc2ccc(CNC3CCN(CCc4c(F)cnc5ccc(F)cc45)CC3)nc2N1 | 525

Row | Compound | XC50 [nM]
51 | CCOC(=O)c1c(-c2ccccc2)nc2c(sc3ccccc32)c1O | 375
52 | Oc1ccc(-c2cc(COc3ccccc3C(F)(F)F)c(C3=CCNCC3)cc2COc2ccccc2C(F)(F)F)cc1 | 775
53 | Cc1cnc(NCC2CCCCC2)nc1N[C@@H](CO)C(=O)Nc1ccccc1 | 1100
54 | COc1cc2nc(N[C@@H](CO)c3ccccc3)nc(NCc3ccccc3)c2cc1OC | 657
55 | CN1CCC(N(Cc2ccc(-c3cnc(NCc4ccccc4)nc3)cc2)S(=O)(=O)c2ccccc2)CC1 | 777
56 | O=C(NC1CCC(N2CCCC(OCc3ccccc3)C2)CC1)c1cc2ccccc2[nH]1 (stereo not drawn) | 1210
57 | OCCOCn1cnc2cnc(N[C@H]3OC[C@H](O)[C@@H](O)[C@@H]3O)nc21 | 1640
58 | COc1ccc2nccc([C@@H](O)CN3CCC(NCc4ccc5c(c4)nnn5C(C)C)CC3)c2c1 | 642
59 | Cc1cc(=O)oc2c1ccc1oc(C(O)c3ccc(Cl)cc3)c(C)c12 (stereo not drawn) | 130
60 | CC(C)CNCc1cccc(-c2ccc(CNC3CCN(Cc4ccccc4)CC3)cc2)c1 | 271
61 | O=C(Nc1ccon1)c1cc(-c2cccnc2)nc2ccc(Cl)cc12 | 786
62 | Cc1noc(C)c1-c1cccc(CNCc2cccc(-c3cccc(-c4nc5cc(C(F)(F)F)ccc5[nH]4)c3)c2)c1 | 456
63 | Cc1cc2c(cc1C(F)(F)F)N(C(=O)Nc1cc(OCCN(C)C)cc(C(F)(F)F)c1)CC2 | 708
64 | CC[C@H]1CN2CC[C@H]1C[C@H]2[C@H](O)c1cc(-c2ccc(OC(F)(F)F)cc2)nc2ccc(OC)cc12 | 51.1
65 | Cc1cccc(CNc2nc(C)cc(NCCC(=O)NCc3cccc(F)c3)n2)c1 | 850
66 | Cc1cc(C(=O)Nc2ccc(OCc3ccccc3)cc2)on1 | 991
67 | Cn1nc(-c2ccc(NC(=O)Nc3cc(C(F)(F)F)cc(C(F)(F)F)c3)c(F)c2)c2cnc(NCCN3CCOCC3)nc21 | 801
68 | COc1ccc(-c2ccc(NC(=O)c3cccc(Cl)c3)cc2)cc1CN(C)CCO | 710
69 | CC(C)C(NC(=O)Cc1cccc2ccccc12)C(=O)Nc1cccc(C#N)c1 (stereo not drawn) | 656
70 | Cc1ccc(C(NC(=O)C2CCCCC2)c2ccc3cccnc3c2O)cc1 (stereo not drawn) | 953
71 | O=S(=O)(c1ccccc1)n1ccc2cc(Nc3ncnc4cc(C#C[C@H]5CCCN5)sc34)ccc21 | 1070
72 | CCN(CC)CCOc1ccc(C(O)(C#CC(O)(c2ccc(Br)cc2)c2ccc(OCCN(CC)CC)cc2)c2ccc(Br)cc2)cc1 (stereo not drawn) | 616
73 | COc1cc(NC(=O)c2sc(-c3ccc(Cl)cc3)cc2NC(=O)c2cccnc2)ccc1OCCN1CCCC1 | 380
74 | CCCC(C)n1ccc2c3c(N)nc(N)nc3ccc21 (stereo not drawn) | 47.6
75 | COc1ccc2c(NN=Cc3ccccn3)ccnc2c1 | 374

Row | Compound | XC50 [nM]
76 | C[C@H](Nc1c(Nc2ccc3[nH]ccc3c2)c(=O)c1=O)C1CCCCC1 | 213
77 | Cc1cc(Cl)c(Cl)cc1NC(=O)Nc1cccc(C(F)(F)F)c1 | 873
78 | CCOC(=O)c1c(C)noc1Nc1cccc(C)c1C | 416
79 | CC(=O)c1ccc(Nc2c(C(N)=O)cnc3cc(-c4c(C)noc4C)ccc23)cc1 | 195
80 | CNC(=O)CNC(=O)COc1cccc2ccccc12 | 226
81 | COc1ccc(Br)cc1/C=C/C(=O)Nc1ccc(C2CCCN(C)C2)cc1 (stereo not drawn) | 633
82 | CC(=O)NCCCCC1NC2(C(=O)N(Cc3ccc(C(C)(C)C)cc3)c3ccccc32)C2C(=O)N(C3CCCCC3)C(=O)C12 (stereo not drawn) | 788
83 | Cc1ccc2c(c1)C1(CC(=O)N(CCc3scnc3C)C1=O)C(=O)N2Cc1ccccc1 (stereo not drawn) | 1250
84 | ON=C1CCc2cc(-c3nc(-c4ccc(OCCN5CCCCC5)cc4)[nH]c3-c3ccncc3)ccc21 | 804
85 | CC1(C)N=C(NC(=O)c2ccc([N+](=O)[O-])cc2)N=C(N)N1OCc1ccc2ccccc2c1 | 7.57
86 | O=C(Nc1ccccc1Cl)c1cc2ccccc2cc1O | 1010
87 | Cc1ccc2c(c1[N+](=O)[O-])N=NCC2Oc1ccccc1 (stereo not drawn) | 868
88 | CC1(C)NC(N)=NC(=N)N1OCOc1ccc(Cl)cc1 | 4.6
89 | CCCCSc1ccc2nc(-c3c[nH]c4ccc(C#N)cc34)cn2c1 | 948
90 | CCc1ccc(-n2c(=O)c3cccnc3n2CC(=O)NC2CCCC2)cc1 | 917
91 | CCC1CCc2cc(N)cc(-c3nc4c(c(C)nn4CC)c(=O)[nH]3)c2O1 (stereo not drawn) | 1120
92 | CC(C)(C)Nc1nc(Nc2cccc([N+](=O)[O-])c2)nc(-n2ccnc2)n1 | 811
93 | COc1ccc(CCN(C)CCCN2CCC(NC(=O)c3cccc4c(=O)c5ccccc5[nH]c34)CC2)cc1OC | 695
94 | Cc1cccc2nc(-c3cccc(-c4ccc(NC(=O)C(C)CN5CCN(C)CC5)cc4)c3)[nH]c12 (stereo not drawn) | 175
95 | Oc1c(CN2CCC(Cc3ccccc3)CC2)cc(Cl)c2cccnc12 | 881
96 | CCC(C)NC(=O)Nc1ccc(-c2cccc(-c3nc4ccccc4[nH]3)c2)cc1 (stereo not drawn) | 821
97 | N=C(N)c1ccc(Nc2nc(Nc3ccc(-c4ccccc4)cc3)ncc2[N+](=O)[O-])cc1 | 804
98 | Cc1nc(-c2ccc(-c3ccc(C(=O)Nc4ccc(-n5ccnc5)c(N5CCN(C)CC5)c4)cc3)c(C)c2)no1 | 834
